From patent US12594268B2, “Methods of treating Fabry disease in patients having a mutation in the GLA gene” (Amicus Therapeutics, Inc., priority 2018, dated 2026)
Changes are numbered by the printed parent chain.

How the values were obtained:
α-Gal A mutant form N53K = target: T1, α-Gal A mutant form N53K (Homo sapiens, UniProt P06280, N53K); test: α-Gal A activity in lysates of transfected HEK-293 cells, N53K; type: cell-based
T1 construct: expressed in transfected cells; host or cells: HEK-293
T1 sequence (P06280 32-429 N53K): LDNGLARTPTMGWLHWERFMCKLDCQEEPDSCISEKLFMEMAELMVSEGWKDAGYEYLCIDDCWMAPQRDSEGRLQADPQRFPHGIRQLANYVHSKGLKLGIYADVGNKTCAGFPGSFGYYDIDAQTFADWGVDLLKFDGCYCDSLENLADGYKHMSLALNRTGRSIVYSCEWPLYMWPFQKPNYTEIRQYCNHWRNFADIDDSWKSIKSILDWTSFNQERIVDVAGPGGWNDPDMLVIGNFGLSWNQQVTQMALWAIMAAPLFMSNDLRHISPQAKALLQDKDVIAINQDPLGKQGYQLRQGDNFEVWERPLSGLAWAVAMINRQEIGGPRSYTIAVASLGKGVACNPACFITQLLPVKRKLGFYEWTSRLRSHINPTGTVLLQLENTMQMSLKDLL
Description: (§1) Baseline and 10 μM migalastat α-Gal A activity: Differences in the α-Gal A activity between lysates incubated in the absence and presence of 10 μM migalastat were determined using a one-tailed, Mann Whitney U test; an increase at 10 μM migalastat with a p<0.05 was considered significant.
(§2) 10 μM migalastat α-Gal A activity (% WT)=(α-Gal A activity in mutant transfected cell lysates incubated with 10 μM migalastat÷α-Gal A activity in wild-type transfected cell lysates without migalastat)*100.
(§3) Absolute increase (% WT)=is the 10 μM migalastat α-Gal A activity (% WT) minus the baseline α-Gal A activity (% WT).
(§4) Relative increase is the 10 μM migalastat α-Gal A activity in mutant transfected cell lysates÷baseline α-Gal A activity in mutant transfected cell lysates incubated without migalastat.

[1] = target: T2, α-Gal A mutant form A156S (Homo sapiens, UniProt P06280, A156S); test: α-Gal A activity in lysates of transfected HEK-293 cells, A156S; type: cell-based
T2 construct: expressed in transfected cells; host or cells: HEK-293
T2 sequence (P06280 32-429 A156S): T1 sequence (P06280 32-429 N53K) with K22N, A125S
Description: as §1, §2, §3, §4

α-Gal A mutant form V22G = target: T3, α-Gal A mutant form V22G (Homo sapiens, UniProt P06280); test: α-Gal A activity in lysates of transfected HEK-293 cells, V22G; type: cell-based
T3 construct: expressed in transfected cells; host or cells: HEK-293
T3 sequence (P06280 32-429): T1 sequence (P06280 32-429 N53K) with K22N
Description: as §1, §2, §3, §4

α-Gal A mutant form N34H = target: T4, α-Gal A mutant form N34H (Homo sapiens, UniProt P06280, N34H); test: α-Gal A activity in lysates of transfected HEK-293 cells, N34H; type: cell-based
T4 construct: expressed in transfected cells; host or cells: HEK-293
T4 sequence (P06280 32-429 N34H): T1 sequence (P06280 32-429 N53K) with N3H, K22N
Description: as §1, §2, §3, §4

[2] = target: T5, α-Gal A mutant form L189F (Homo sapiens, UniProt P06280, L189F); test: α-Gal A activity in lysates of transfected HEK-293 cells, L189F; type: cell-based
T5 construct: expressed in transfected cells; host or cells: HEK-293
T5 sequence (P06280 32-429 L189F): T1 sequence (P06280 32-429 N53K) with K22N, L158F
Description: as §1, §2, §3, §4

[3] = system: mutant form of α-Gal A expressed in HEK-293 cells; test: HEK assay amenability criteria (relative increase ≥1.20-fold and absolute increase ≥3.0% wild-type)
Description: The α-Gal A activity was measured in lysates prepared from HEK-293 cells transiently transfected with the indicated mutant form of α-Gal A and incubated in the absence or presence of 10 μM migalastat for 5 days. The α-Gal A activity is expressed as the nmoles of free 4-MU released per milligram of protein per hour (nmol/mg/hr). Baseline α-Gal A activity and α-Gal A activity after incubation with 10 μM migalastat, were additionally expressed as a percentage of baseline wild-type α-Gal A activity (% WT). The wild-type α-Gal A activity that was used to calculate these percentages was the average activity measured in lysates from wild-type transfected cells, incubated in the absence of migalastat, measured in parallel.

[4] = 10 μM migalastat minus baseline
[5] = 10 μM migalastat ÷ baseline activity
[6] = HEK-293 lysates, 10 μM migalastat, 5 days, mean ± SEM

- Absolute increase (% WT) (α-Gal A mutant form N53K; [4]): 24.0 % WT
- Relative increase (α-Gal A mutant form N53K; [5]): 2.70
- 10 μM migalastat α-Gal A activity (α-Gal A mutant form N53K; [6]): 13895 ± 1270 nmol/mg/h
- 10 μM migalastat α-Gal A activity (% WT) (α-Gal A mutant form N53K; [6]): 38.6 ± 2.5 % WT
- Absolute increase (% WT) [1, 4]: 18.4 % WT
- Relative increase [1, 5]: 1.29
- 10 μM migalastat α-Gal A activity [1, 6]: 31597 ± 2293 nmol/mg/h
- 10 μM migalastat α-Gal A activity (% WT) [1, 6]: 85.1 ± 53 % WT
- Absolute increase (% WT) (α-Gal A mutant form V22G; [4]): 9.0 % WT
- Relative increase (α-Gal A mutant form V22G; [5]): 1.53
- 10 μM migalastat α-Gal A activity (α-Gal A mutant form V22G; [6]): 7150 ± 700 nmol/mg/h
- 10 μM migalastat α-Gal A activity (% WT) (α-Gal A mutant form V22G; [6]): 24.6 ± 2.8 % WT
- Absolute increase (% WT) (α-Gal A mutant form N34H; 10 μM migalastat minus baseline (baseline BLD)): 3.6 % WT
- 10 μM migalastat α-Gal A activity (% WT) (α-Gal A mutant form N34H; [6]): 3.6 ± 0.2 % WT
- 10 μM migalastat α-Gal A activity (α-Gal A mutant form N34H; HEK-293 lysates, 10 μM migalastat, 5 days, mean ± SEM, baseline BLD): 1414 ± 100 nmol/mg/h
- Absolute increase (% WT) [2, 4]: 15.3 % WT
- Relative increase [2, 5]: 1.22
- 10 μM migalastat α-Gal A activity [2, 6]: 27388 ± 1605 nmol/mg/h
- 10 μM migalastat α-Gal A activity (% WT) [2, 6]: 84.6 ± 3.8 % WT
SMILES: OC[C@H]1NC[C@H](O)[C@@H](O)[C@H]1O [migalastat, (2R,3S,4R,5S)-2-(hydroxymethyl) piperdine-3,4,5-triol]
- in vitro response to incubation with migalastat (amenability) ([3]; Table 2, mutations D33H, G35A, Y88S, T194A, W204G, Y216S, Q250K, and R392T): met amenability criteria
- in vitro response to incubation with migalastat (amenability) ([3]; Table 3, mutations printed as D33H, G35A, Y88S, T194A, W204G, Y216S, Q250K, and R392T): met amenability criteria
- in vitro response to incubation with migalastat (amenability) ([3]; Table 4, mutations V22G, N34H, G80V, Q107R, Y152D, A156S, L189F, W204L, S238G, 1239M, A257V, P259Q, N320H, P323T, E338V, P380L, and T412P): met amenability criteria
